The source of these data is ChEMBL document CHEMBL4610102, “Betulinic Acid Inhibits RANKL-Induced Osteoclastogenesis via Attenuating Akt, NF-κB, and PLCγ2-Ca2+ Signaling and Prevents Inflammatory Bone Loss” (J Nat Prod, 2020).

Data set [1] addresses RAC-alpha serine/threonine-protein kinase (Mus musculus) (UniProt P31750). The experiment in a line: Inhibition of AKT phosphorylation in RANKL-induced ICR mouse bone marrow macrophages at 1 uM preincubated for 1 hr followed by RANKL-stimulation and measured after 5 to 30 mins by Western blot analysis. (In general: Immunoblotting shows a protein as a band on a membrane.)
The test system of data set [2] is BMDM. The experiment in a line: Anti-osteoporosis activity in ICR mouse bone marrow macrophages assessed as inhibition of RANKL-induced c-Fos protein expression at 0.1 to 1 uM after 24 hrs by Western blot analysis. Format: functional, cell-based.
In data set [3] the test system is BMDM. The experiment in a line: Anti-osteoporosis activity in ICR mouse bone marrow macrophages assessed as inhibition of RANKL-induced NFATc1 protein expression at 0.1 to 1 uM after 24 hrs by Western blot analysis. Type of data set: functional, cell-based.
Data set [4] concerns BMDM. The experiment in a line: Inhibition of RANKL-induced osteoclastogenesis in ICR mouse bone marrow macrophages assessed as reduction in TRAP-positive multinucleated osteoclasts at 0.1 to 1 uM after 3 days by TRAP staining based assay. Format: functional, cell-based.
In data set [5] the test system is BMDM. Kind of data set: Inhibition of RANKL-induced osteoclastogenesis in ICR mouse bone marrow macrophages assessed as reduction in TRAP-positive multinucleated osteoclasts after 4 days by TRAP staining based assay. Type of data set: functional, cell-based.
Data set [6] concerns BMDM. The experiment in a line: Cytotoxicity against ICR mouse bone marrow macrophages assessed as reduction in cell viability up to 10 uM after 3 days by XTT assay. Type of data set: cell-based. Particulars: 72 h.
In data set [7] the target is T1, 1-phosphatidylinositol 4,5-bisphosphate phosphodiesterase gamma-2 (Mus musculus) (UniProt Q8CIH5).
T1 sequence (whole entry): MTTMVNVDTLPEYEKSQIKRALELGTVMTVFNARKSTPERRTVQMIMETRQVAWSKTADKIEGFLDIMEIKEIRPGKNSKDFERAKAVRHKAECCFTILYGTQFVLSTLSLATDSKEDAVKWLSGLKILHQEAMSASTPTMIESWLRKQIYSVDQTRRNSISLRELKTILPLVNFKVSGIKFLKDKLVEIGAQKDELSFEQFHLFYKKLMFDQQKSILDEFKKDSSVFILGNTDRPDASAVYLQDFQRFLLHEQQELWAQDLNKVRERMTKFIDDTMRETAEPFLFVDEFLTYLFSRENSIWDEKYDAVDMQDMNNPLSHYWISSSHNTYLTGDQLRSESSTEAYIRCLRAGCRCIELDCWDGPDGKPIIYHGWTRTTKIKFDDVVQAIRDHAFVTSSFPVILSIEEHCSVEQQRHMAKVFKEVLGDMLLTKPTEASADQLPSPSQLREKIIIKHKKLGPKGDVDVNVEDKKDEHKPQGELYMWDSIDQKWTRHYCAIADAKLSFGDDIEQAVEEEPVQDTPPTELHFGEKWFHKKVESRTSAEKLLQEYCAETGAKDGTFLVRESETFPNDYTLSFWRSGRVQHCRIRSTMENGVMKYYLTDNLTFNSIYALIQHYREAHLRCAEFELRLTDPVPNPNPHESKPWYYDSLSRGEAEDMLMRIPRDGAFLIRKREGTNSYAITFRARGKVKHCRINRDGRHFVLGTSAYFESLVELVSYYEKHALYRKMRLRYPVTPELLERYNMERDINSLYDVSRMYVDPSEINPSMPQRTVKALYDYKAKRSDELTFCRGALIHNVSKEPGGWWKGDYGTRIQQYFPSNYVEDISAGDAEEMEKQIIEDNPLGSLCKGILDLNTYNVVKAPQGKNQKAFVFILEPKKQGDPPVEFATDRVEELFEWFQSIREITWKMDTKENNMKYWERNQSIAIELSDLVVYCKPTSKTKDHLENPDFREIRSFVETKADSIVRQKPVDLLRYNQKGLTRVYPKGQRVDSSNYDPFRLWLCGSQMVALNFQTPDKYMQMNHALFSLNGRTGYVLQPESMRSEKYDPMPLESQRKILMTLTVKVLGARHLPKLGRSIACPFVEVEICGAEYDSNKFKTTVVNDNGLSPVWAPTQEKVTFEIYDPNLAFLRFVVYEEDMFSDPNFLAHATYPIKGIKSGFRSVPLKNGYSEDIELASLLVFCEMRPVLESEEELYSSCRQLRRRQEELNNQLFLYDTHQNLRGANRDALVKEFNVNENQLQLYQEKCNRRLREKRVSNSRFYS
Kind of data set: Inhibition of PLCgamma2 in ICR mouse bone marrow macrophages assessed as reduction in calcium influx at 10 uM after 3 days by Fluo-3/AM staining based confocal microscopic analysis.

Data set [8] deals with T1, 1-phosphatidylinositol 4,5-bisphosphate phosphodiesterase gamma-2 (Mus musculus). The experiment in a line: Inhibition of PLCgamma2 phosphorylation in RANKL-induced ICR mouse bone marrow macrophages at 10 uM preincubated for 1 hr followed by RANKL-stimulation and measured after 5 to 30 mins by Western blot analysis.
The test system of data set [9] is BMDM. The experiment in a line: Anti-osteoporosis activity in ICR mouse bone marrow macrophages assessed as inhibition of RANKL-induced c-Fos mRNA expression at 10 uM after 12 to 48 hrs by RT-PCR analysis. Format: functional, cell-based.
In data set [10] the test system is BMDM. The experiment in a line: Anti-osteoporosis activity in ICR mouse bone marrow macrophages assessed as inhibition of RANKL-induced NFATc1 mRNA expression at 10 uM after 12 to 48 hrs by RT-PCR analysis. Format: functional, cell-based.
For data set [11], the system named is BMDM. The experiment in a line: Anti-osteoporosis activity in ICR mouse bone marrow macrophages assessed as inhibition of RANKL-induced c-Fos protein expression at 10 uM after 12 to 48 hrs by Western blot analysis. Type of data set: functional, cell-based.
The test system of data set [12] is BMDM. The experiment in a line: Anti-osteoporosis activity in ICR mouse bone marrow macrophages assessed as inhibition of RANKL-induced NFATc1 protein expression at 10 uM after 12 to 48 hrs by Western blot analysis. Format: functional, cell-based.
Data set [13] concerns BMDM. Kind of data set: Anti-osteoporosis activity in ICR mouse bone marrow macrophages assessed as inhibition of RANKL-induced OSCAR mRNA expression at 10 uM after 12 to 48 hrs by RT-PCR analysis. Type of data set: functional.
The subject of data set [14] is BMDM. The experiment in a line: Anti-osteoporosis activity in ICR mouse bone marrow macrophages assessed as inhibition of RANKL-induced OC-STAMP mRNA expression at 10 uM after 12 to 48 hrs by RT-PCR analysis. Format: functional.
For data set [15], the system named is BMDM. Kind of data set: Anti-osteoporosis activity in ICR mouse bone marrow macrophages assessed as inhibition of RANKL-induced DC-STAMP mRNA expression at 10 uM after 12 to 48 hrs by RT-PCR analysis. Type of data set: functional.
Data set [16] concerns BMDM. Kind of data set: Anti-osteoporosis activity in ICR mouse bone marrow macrophages assessed as inhibition of RANKL-induced ATP6v0d2 mRNA expression at 10 uM after 12 to 48 hrs by RT-PCR analysis. Type of data set: functional.
Data set [17] concerns BMDM. The experiment in a line: Anti-osteoporosis activity in ICR mouse bone marrow macrophages assessed as inhibition of RANKL-induced MMP9 mRNA expression at 10 uM after 12 to 48 hrs by RT-PCR analysis. Type of data set: functional.
The subject of data set [18] is BMDM. The experiment in a line: Anti-osteoporosis activity in ICR mouse bone marrow macrophages assessed as inhibition of RANKL-induced beta3-integrin mRNA expression at 10 uM after 12 to 48 hrs by RT-PCR analysis. Type of data set: functional.
In data set [19] the target is RAC-alpha serine/threonine-protein kinase (Mus musculus) (UniProt P31750). The experiment in a line: Inhibition of AKT phosphorylation in RANKL-induced ICR mouse bone marrow macrophages at 10 uM preincubated for 1 hr followed by RANKL-stimulation and measured after 5 to 30 mins by Western blot analysis.
For data set [20], the target named is I-kappa-B kinase (Mus musculus) (UniProt Q60680+O88351+O88522). Kind of data set: Inhibition of IKappaB phosphorylation in RANKL-induced ICR mouse bone marrow macrophages at 10 uM preincubated for 1 hr followed by RANKL-stimulation and measured after 5 to 30 mins by Western blot analysis. Format: protein-complex assay.
In data set [21] the test system is BMDM. The experiment in a line: Inhibition of RANKL-induced osteoclastogenesis in ICR mouse bone marrow harboring constitutively active AKT macrophages assessed as reduction in TRAP-positive multinucleated osteoclasts at 10 uM after 3 days by TRAP staining based assay. Type of data set: functional, cell-based.
For data set [22], the system named is BMDM. Kind of data set: Inhibition of RANKL-induced osteoclastogenesis in ICR mouse bone marrow macrophages harboring constitutively active IKKbeta assessed as reduction in TRAP-positive multinucleated osteoclasts at 10 uM after 3 days by TRAP staining based assay. Format: functional, cell-based.
Another data set relates to HEK-293T. Kind of data set: Trans-suppression of NFkappaB (unknown origin) in HEK293T cells cotransfected with betagalactosidase at 10 uM incubated for 12 hrs followed by RANKL-stimulation by luciferase reporter gene assay. Type of data set: cell-based. The following applies: Homo sapiens.
The test system of data set [23] is Osteoclast. The experiment in a line: Inhibition of bone-resorbing in ICR mouse osteoclasts assessed as reduction in resorption at 10 uM after 24 hrs by pit formation assay. Format: functional, cell-based.
The subject of data set [24] is Osteoclast. Kind of data set: Inhibition of bone-resorbing in ICR mouse osteoclasts assessed as downregulation of Ctsk-mRNA expression at 10 uM after 12 to 48 hrs by RT-PCR analysis. Format: functional, cell-based.
Data set [25] has as its system Mus musculus. The experiment in a line: Anti-resorptive activity in ICR mouse model of LPS-Induced bone loss assessed as reduction in bone loss in proximal femurs at 10 mg/kg, po for 8 days by micro-CT analysis. Type of data set: functional, organism-based.
Data set [26] relates to Mus musculus. The experiment in a line: Anti-resorptive activity in ICR mouse model of LPS-Induced bone loss assessed as reduction in trabecular separation in proximal femurs at 10 mg/kg, po for 8 days by micro-CT analysis. Type of data set: functional, organism-based.
Data set [27] deals with Mus musculus. Kind of data set: Anti-resorptive activity in ICR mouse model of LPS-Induced bone loss assessed as increase in trabecular number in proximal femurs at 10 mg/kg, po for 8 days by micro-CT analysis. Type of data set: functional, organism-based.
The subject of data set [28] is Mus musculus. The experiment in a line: Anti-resorptive activity in ICR mouse model of LPS-Induced bone loss assessed as increase in bone volume per tissue volume in proximal femurs at 10 mg/kg, po for 8 days by micro-CT analysis. Type of data set: functional, organism-based.
Data set [29] concerns Mus musculus. Kind of data set: Anti-resorptive activity in ICR mouse model of LPS-Induced bone loss assessed as increase in trabecular bone in femurs at 10 mg/kg, po for 8 days by H and E staining based light microscopic analysis. Type of data set: functional, organism-based.
For data set [30], the system named is Mus musculus. The experiment in a line: Anti-resorptive activity in ICR mouse model of LPS-Induced bone loss assessed as inhibition of TRAP-positive multinucleated osteoclasts formation in femurs at 10 mg/kg, po for 8 days by TRAP staining based light microscopic analysis. Format: functional, organism-based.

Activity calls are given as the source filed them. No cut-off for these calls is given here.

Sequence of RAC-alpha serine/threonine-protein kinase (Mus musculus) (P31750 whole entry): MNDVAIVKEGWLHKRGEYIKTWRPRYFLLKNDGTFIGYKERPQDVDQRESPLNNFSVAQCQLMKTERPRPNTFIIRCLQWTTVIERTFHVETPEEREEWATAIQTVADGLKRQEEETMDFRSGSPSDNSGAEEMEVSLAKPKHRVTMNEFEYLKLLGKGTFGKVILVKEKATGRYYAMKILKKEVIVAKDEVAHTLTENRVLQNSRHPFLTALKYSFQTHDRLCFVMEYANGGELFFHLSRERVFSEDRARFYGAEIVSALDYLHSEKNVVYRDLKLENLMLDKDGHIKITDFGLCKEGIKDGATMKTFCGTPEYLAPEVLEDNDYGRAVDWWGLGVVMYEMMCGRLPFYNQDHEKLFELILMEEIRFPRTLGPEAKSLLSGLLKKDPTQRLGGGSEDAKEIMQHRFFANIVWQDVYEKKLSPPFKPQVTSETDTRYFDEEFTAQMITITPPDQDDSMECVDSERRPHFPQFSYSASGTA

Regarding `NC1(c2ccc(-c3nc4ccn5c(=O)[nH]nc5c4cc3-c3ccccc3)cc2)CCC1`, the inhibition entry (in data set [1]; with BMDM [2]; in the data set with BMDM [3]; with BMDM [4]) was “Active” each time.

For `C=C(C)[C@@H]1CC[C@]2(C(=O)O)CC[C@]3(C)[C@H](CC[C@@H]4[C@@]5(C)CC[C@H](O)C(C)(C)[C@@H]5CC[C@]43C)[C@@H]12` [BETULINIC ACID], the inhibition result in the data set with BMDM [5] is “Dose-dependent effect”. Further, the Activity entry in the data set with BMDM [6] is recorded as “Non-Toxic”. Further, the inhibition result (in data set [7]; in [8]; with BMDM [9]; with BMDM [10]; in the data set on BMDM [11]; in the data set on BMDM [12]) was “Active” in each case. In addition, the inhibition entry (in data set [19]; in data set [20]; with BMDM [22]; with Osteoclast [23]; with Osteoclast [24]; in the data set with Mus musculus [30]) was “Active” throughout. The “fold change (FC)” value in the data set on BMDM [13], in the data set with BMDM [14], in the data set on BMDM [15], with BMDM [16], in the data set with BMDM [17] and with BMDM [18] was 2 - 4 each time. Further, the inhibition result with BMDM [21] was “inactive”. The result in the data set with HEK-293T, in the data set on Mus musculus [25], in the data set on Mus musculus [26], in the data set on Mus musculus [27], with Mus musculus [28] and in the data set on Mus musculus [29] was Active.
